Results taken from ChEMBL document CHEMBL1201862, “PubChem BioAssay data set” (2004).
Active and inactive are the calls of the source.

Tests used:
CAAX prenyl protease 2 = target: T1, CAAX prenyl protease 2 (Homo sapiens, UniProt Q9Y256); experiment: human Rce1 protease inhibitors, dose response, biochemical, yeast membranes, quenched-peptide fluorescence, cherry-pick (AID 588849)
T1 sequence (Q9Y256 whole entry): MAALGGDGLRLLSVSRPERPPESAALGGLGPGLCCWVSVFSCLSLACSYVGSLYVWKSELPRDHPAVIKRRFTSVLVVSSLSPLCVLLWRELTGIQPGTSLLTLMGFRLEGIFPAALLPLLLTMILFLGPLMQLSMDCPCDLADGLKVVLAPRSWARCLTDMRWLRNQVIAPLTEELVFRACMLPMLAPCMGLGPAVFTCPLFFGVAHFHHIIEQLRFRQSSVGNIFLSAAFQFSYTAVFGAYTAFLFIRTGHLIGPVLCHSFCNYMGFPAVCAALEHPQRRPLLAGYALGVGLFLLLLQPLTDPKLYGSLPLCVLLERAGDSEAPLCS

CAAX prenyl protease 1 = CAAX prenyl protease 1 (Saccharomyces cerevisiae S288c, UniProt P47154); experiment: Ste24 protease inhibitors, dose response, biochemical, S. cerevisiae, plate reader, cherry-pick (AID 488815)
[1] = Vero E6 cell cytotoxicity, dose response, cytotoxicity control for non-replicating M. tuberculosis project, secondary assay (AID 492998); assay type: functional, VeroE6; settings: Vero C1008
cells = assay type: functional
Trypsin = Trypsin (Sus scrofa, UniProt P00761); experiment: porcine trypsin inhibitors, dose response, selectivity assay for Rce1 protease inhibitor project, biochemical, quenched peptide fluorescence, cherry-pick (AID 488789)
[2] = HepG2 cell cytotoxicity, dose response, cytotoxicity control for non-replicating M. tuberculosis project (AID 489018); assay type: functional; settings: Mycobacterium tuberculosis
HEK293 [3] = experiment: NOD2 signaling inhibitors in MDP-stimulated cells, cell-based, uHTS, luminescence (AID 2001); assay type: functional; settings: Homo sapiens
HEK293 [4] = experiment: cells; settings: Homo sapiens
HEK293 [5] = experiment: cells; assay type: functional, cell-based; settings: Homo sapiens
HEK293 [6] = experiment: cells; assay type: functional, cell-based; settings: Homo sapiens; remark: listed apart in the source
Tumor necrosis factor = Tumor necrosis factor (Homo sapiens, UniProt P01375); experiment: TNFa-triggered NF-kB activation inhibitors, SAR follow-up, cell-based, revised (AID 2337); assay type: functional
[7] = target: Nucleotide-binding oligomerization domain-containing protein 2 (Homo sapiens, UniProt Q9HC29); experiment: NOD2 signaling inhibitors, cell-based, luminescence, uHTS, HEK293 (AID 1566); assay type: functional
HEK293 [8] = experiment: NOD1 signaling inhibitors, primary screen, cell-based, luminescence, uHTS (AID 1578); assay type: functional; settings: Homo sapiens
HEK293 [9] = experiment: cells; assay type: functional, cell-based; settings: Homo sapiens; remark: listed apart in the source
[10] = target: Nucleotide-binding oligomerization domain-containing protein 1 (Homo sapiens, UniProt Q9Y239); experiment: NOD1 signaling inhibitors, SAR follow-up, revised (AID 2333); assay type: functional
[11] = target: T2, Alkaline phosphatase, tissue-nonspecific isozyme (Homo sapiens, UniProt P05186)
T2 sequence (P05186 whole entry): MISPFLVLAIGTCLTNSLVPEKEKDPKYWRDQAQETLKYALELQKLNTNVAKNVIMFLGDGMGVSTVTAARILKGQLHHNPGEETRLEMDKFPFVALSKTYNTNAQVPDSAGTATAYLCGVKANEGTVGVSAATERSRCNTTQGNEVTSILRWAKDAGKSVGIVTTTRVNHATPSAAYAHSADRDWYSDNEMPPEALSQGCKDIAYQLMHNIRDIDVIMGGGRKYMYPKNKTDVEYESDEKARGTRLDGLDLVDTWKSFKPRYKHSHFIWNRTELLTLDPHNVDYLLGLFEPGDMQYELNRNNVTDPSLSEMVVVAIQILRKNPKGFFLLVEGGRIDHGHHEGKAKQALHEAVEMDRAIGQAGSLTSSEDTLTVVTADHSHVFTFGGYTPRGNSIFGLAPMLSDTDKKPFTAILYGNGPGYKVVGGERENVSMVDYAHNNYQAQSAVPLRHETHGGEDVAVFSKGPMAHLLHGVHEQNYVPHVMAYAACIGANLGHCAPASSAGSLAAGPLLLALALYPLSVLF

[12] = target: Intestinal-type alkaline phosphatase (Mus musculus, UniProt P24822); experiment: PubChem AID 488874; assay type: functional
[13] = target: T3, Intestinal-type alkaline phosphatase (Homo sapiens, UniProt P09923); experiment: human IAP activators, dose response, biochemical, luminescent, uHTS hits, set 2 (AID 488817); assay type: functional;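 also: potency of activators that raise enzyme activity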
[14] = target: T2, Alkaline phosphatase, tissue-nonspecific isozyme; experiment: TNAP enzyme activators, dose response, selectivity assay for human IAP activator project, biochemical, TNAP isozyme, human IAP uHTS hits (AID 488886); assay type: functional;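 also: potency of compounds raising TNAP activity as a selectivity check on IAP activators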
[15] = target: T3, Intestinal-type alkaline phosphatase; experiment: human intestinal alkaline phosphatase activators, dose response, biochemical, luminescence, uHTS hits (AID 463120); assay type: functional
[16] = target: Sphingosine 1-phosphate receptor 1 (Homo sapiens, UniProt P21453); experiment: Fluorescence-based counterscreen assay for S1P4 agonists: Cell-based dose response high throughput screening assay to identify agonists of the Sphingosine 1-Phosphate Receptor 1 (S1P1). [Related pubchem assays (depositor defined):AID1509, AID1523, AID1801, AID463107, AID463118, AID463119, AID463122, AID463123, AID463129, AID463225, AID504400, AID504460]; assay type: functional
Fatty acid synthase [17] = target: T4, Fatty acid synthase (Homo sapiens, UniProt P49327); experiment: FAS thioesterase domain inhibitors, dose response, biochemical, kinetic fluorescence intensity (AID 624326); assay type: functional;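 also: rate of fluorescence rise from hydrolysis of a fluorogenic O-methyl fluorescein ester substrate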
[18] = target: Endoplasmic reticulum aminopeptidase 1 (Homo sapiens, UniProt Q9NZ08); experiment: ERAP1 aminopeptidase inhibitors, dose response, biochemical, cherry-pick, set 2, plate reader (AID 743314)
[19] = target: Sphingosine 1-phosphate receptor 4 (Homo sapiens, UniProt O95977); experiment: Fluorescence dose response cell-based high throughput screening assay for agonists of the Sphingosine 1-Phosphate Receptor 4 (S1P4). [Related pubchem assays: 1509 (Primary screen.), 1523 (Confirmation screen in triplicates.)]; assay type: functional
Fatty acid synthase [20] = target: T4, Fatty acid synthase; experiment: FAS thioesterase domain inhibitors, dose response, biochemical, endpoint fluorescence intensity, uHTS hits (AID 624327); assay type: functional;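 also: fluorescence from hydrolysis of an O-methyl fluorescein acyl ester substrate by the enzyme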
[21] = target: Sphingosine 1-phosphate receptor 2 (Homo sapiens, UniProt O95136); experiment: Dose Response Cell Based Assay for Agonists of the S1P2 Receptor. [Related pubchem assays: 729, 736, 843 ]; assay type: functional

T3 sequence (P09923 whole entry): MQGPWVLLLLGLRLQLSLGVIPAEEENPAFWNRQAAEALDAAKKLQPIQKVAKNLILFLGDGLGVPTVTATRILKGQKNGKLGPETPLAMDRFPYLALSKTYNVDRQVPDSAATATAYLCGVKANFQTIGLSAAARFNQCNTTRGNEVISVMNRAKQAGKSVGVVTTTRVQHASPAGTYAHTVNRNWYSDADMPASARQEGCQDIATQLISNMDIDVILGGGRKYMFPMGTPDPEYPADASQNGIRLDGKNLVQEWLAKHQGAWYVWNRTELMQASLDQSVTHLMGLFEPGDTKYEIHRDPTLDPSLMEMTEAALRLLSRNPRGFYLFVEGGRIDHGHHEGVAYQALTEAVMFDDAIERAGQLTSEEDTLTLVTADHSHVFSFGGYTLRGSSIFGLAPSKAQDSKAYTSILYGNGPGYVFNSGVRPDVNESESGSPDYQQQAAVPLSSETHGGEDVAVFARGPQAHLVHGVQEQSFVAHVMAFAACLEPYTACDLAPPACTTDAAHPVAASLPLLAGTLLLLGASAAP
T4 sequence (P49327 whole entry, the tested form may be a part): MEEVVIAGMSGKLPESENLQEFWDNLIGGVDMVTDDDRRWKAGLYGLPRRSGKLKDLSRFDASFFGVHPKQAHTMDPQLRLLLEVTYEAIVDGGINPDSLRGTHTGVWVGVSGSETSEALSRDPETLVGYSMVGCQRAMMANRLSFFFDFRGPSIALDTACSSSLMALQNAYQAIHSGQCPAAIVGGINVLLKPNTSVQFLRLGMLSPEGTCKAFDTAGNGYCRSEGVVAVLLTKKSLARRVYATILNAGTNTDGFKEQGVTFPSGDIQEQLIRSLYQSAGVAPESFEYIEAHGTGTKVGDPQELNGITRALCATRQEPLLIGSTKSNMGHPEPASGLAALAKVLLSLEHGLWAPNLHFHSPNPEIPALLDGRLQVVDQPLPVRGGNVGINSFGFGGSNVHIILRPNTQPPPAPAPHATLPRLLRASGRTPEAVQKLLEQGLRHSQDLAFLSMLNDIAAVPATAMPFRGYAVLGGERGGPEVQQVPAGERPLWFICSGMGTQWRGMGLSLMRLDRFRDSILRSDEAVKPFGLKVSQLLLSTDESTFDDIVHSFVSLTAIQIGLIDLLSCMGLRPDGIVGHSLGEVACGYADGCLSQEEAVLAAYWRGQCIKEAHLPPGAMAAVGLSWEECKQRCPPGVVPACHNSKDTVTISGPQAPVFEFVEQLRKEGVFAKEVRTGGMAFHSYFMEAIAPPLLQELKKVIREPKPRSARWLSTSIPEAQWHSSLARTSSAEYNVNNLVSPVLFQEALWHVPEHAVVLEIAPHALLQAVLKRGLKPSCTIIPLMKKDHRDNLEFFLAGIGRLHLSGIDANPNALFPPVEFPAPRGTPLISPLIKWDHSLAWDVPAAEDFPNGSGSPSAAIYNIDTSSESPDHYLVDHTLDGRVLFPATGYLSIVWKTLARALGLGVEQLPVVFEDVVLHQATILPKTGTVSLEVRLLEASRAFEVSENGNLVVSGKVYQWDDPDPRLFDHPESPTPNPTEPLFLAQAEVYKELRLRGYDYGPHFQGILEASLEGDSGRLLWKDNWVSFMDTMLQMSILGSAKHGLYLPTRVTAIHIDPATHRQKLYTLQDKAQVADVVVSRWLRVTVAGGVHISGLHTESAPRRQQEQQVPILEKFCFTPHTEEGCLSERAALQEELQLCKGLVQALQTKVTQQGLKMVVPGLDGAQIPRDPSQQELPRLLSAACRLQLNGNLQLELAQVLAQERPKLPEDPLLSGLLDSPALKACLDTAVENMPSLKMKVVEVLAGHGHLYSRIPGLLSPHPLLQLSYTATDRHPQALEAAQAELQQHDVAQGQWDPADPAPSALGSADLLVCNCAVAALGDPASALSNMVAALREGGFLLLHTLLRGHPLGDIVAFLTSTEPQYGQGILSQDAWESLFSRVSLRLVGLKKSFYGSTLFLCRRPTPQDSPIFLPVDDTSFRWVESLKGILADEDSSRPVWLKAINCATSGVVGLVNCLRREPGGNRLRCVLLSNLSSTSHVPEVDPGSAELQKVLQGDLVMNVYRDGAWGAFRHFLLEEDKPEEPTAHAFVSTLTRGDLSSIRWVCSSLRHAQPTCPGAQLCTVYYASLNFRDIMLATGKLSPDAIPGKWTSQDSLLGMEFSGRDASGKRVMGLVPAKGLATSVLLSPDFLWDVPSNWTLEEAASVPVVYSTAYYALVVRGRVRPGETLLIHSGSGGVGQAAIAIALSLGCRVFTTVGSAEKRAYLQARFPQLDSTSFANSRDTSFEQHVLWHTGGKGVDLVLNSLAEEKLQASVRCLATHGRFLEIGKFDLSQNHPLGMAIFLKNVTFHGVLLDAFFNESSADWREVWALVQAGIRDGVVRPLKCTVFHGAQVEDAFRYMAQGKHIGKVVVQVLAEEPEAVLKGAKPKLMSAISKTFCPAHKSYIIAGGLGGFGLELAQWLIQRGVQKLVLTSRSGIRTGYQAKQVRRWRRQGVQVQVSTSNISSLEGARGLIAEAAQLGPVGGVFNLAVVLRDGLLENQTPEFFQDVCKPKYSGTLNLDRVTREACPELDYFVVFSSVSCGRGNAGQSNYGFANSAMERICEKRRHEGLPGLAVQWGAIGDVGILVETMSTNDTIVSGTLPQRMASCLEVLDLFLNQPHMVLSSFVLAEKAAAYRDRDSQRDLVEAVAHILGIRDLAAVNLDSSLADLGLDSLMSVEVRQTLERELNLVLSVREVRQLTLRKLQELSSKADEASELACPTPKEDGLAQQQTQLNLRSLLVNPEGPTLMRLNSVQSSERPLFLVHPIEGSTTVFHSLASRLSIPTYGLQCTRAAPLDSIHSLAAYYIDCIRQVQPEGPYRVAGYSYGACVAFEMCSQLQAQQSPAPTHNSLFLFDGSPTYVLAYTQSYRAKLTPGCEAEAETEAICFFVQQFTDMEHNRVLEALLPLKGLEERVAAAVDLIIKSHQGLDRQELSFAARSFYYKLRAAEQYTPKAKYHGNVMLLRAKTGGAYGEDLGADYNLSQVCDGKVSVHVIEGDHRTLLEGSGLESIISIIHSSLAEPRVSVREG
Chain of Nucleotide-binding oligomerization domain-containing protein 1 (Q9Y239 whole entry, the tested form may be a part): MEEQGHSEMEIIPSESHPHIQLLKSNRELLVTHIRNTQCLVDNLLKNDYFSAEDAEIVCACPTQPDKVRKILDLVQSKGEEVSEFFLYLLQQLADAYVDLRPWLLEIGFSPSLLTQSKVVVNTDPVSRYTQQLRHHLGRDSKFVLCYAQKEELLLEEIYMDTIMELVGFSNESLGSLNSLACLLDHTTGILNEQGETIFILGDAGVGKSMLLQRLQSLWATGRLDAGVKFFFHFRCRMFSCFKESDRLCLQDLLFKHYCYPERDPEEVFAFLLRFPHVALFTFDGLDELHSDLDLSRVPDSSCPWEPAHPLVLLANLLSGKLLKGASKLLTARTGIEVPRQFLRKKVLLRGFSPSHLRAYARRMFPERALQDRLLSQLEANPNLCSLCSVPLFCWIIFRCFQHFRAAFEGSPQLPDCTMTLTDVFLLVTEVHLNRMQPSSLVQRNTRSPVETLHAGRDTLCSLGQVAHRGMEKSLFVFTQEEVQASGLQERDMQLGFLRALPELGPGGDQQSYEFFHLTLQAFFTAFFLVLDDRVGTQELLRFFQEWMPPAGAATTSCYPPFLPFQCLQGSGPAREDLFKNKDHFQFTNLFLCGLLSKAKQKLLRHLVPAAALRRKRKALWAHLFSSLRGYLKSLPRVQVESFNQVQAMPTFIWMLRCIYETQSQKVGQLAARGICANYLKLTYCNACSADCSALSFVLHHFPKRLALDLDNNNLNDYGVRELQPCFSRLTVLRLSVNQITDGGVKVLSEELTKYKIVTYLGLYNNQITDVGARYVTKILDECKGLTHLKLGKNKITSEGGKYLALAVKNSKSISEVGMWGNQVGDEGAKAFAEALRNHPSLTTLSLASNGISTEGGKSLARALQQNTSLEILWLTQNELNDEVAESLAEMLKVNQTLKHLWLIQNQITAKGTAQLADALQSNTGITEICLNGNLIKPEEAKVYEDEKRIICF
Chain of CAAX prenyl protease 1 (P47154 whole entry): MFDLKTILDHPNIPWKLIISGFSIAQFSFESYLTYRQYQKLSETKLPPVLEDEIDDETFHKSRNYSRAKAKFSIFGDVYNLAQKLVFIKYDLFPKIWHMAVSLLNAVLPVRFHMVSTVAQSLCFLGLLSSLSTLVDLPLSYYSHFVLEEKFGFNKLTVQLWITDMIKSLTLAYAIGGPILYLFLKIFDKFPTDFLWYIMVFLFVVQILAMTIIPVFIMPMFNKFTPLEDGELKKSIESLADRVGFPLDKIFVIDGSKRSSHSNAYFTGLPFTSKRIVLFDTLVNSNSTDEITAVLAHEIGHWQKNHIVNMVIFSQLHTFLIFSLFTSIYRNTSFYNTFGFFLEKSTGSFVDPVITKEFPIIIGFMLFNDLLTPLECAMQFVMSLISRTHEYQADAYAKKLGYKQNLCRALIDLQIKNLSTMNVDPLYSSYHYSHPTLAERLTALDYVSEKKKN
Chain of Sphingosine 1-phosphate receptor 1 (P21453 whole entry, the tested form may be a part): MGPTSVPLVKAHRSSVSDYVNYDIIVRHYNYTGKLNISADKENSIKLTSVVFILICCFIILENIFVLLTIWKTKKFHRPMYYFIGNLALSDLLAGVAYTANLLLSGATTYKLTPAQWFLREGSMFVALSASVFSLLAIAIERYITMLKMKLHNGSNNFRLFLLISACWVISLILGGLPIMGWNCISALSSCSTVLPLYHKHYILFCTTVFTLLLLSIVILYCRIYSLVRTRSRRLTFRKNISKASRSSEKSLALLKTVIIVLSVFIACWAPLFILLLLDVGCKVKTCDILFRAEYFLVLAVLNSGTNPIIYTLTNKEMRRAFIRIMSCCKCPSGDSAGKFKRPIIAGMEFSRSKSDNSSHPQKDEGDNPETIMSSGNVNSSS
Chain of Tumor necrosis factor (P01375 whole entry, the tested form may be a part): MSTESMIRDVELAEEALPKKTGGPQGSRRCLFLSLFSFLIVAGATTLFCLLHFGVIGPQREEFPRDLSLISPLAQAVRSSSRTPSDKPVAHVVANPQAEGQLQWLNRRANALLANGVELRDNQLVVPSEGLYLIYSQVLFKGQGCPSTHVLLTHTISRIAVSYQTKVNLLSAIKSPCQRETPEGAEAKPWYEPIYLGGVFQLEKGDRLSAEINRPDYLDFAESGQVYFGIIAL

With `Cc1nn2c(NCCN(C)C)c3c(nc2c1-c1ccccc1)CCCC3` the AC50 (CAAX prenyl protease 2) was 14.3 µM (active), the AC50 (CAAX prenyl protease 1) was 4.57 µM (active) and the CC50 [1] was > 20 µM (active). For the same molecule, the IC50 (cells) was 5.84 µM (active), the AC50 (Trypsin) was 12.7 µM (active) and the CC50 [2] was 16.4 µM (active).

In the case of `O=C(Nc1nnc(S(=O)(=O)N2CCCCCC2)s1)c1ccc(Br)cc1`, the IC50 (HEK293 [3]) is reported as 18.1 µM (inactive), the IC50 (HEK293 [4]) is reported as > 20 µM (inactive) and the IC50 (HEK293 [5]) is reported as 14.2 µM (active). The IC50 (HEK293 [6]) was > 20 µM (inactive), the IC50 (Tumor necrosis factor) was > 20 µM (inactive) and the EC50 [7] was 10.4 µM (active). The EC50 (HEK293 [8]) was 1.56 µM (active), the IC50 (HEK293 [9]) was > 20 µM (inactive) and the IC50 [10] was 5.53 µM (active).

With `CCCOCC(O)CC(CC)C(=O)NNC(=S)Nc1ccccc1` (stereo unspecified) the EC50 [11] was > 100 µM (not active), the IC50 [12] was 69.5 µM (active) and the EC50 [13] was 15.1 µM (active). The EC50 [14] was 16.2 µM (active) and the EC50 [15] was 14.1 µM (active).

In the case of `O=S(=O)(c1ccc(N2CCC(c3ccc(Cl)cc3)=N2)cc1)N(CCO)CCO`, the EC50 [16] is reported as 3.12 µM (active), the IC50 (Fatty acid synthase [17]) is reported as 0.469 µM (active) and the AC50 [18] is reported as 13 µM (active). For the same molecule, the EC50 [19] was 3.65 µM (active), the IC50 (Fatty acid synthase [20]) was 0.434 µM (active) and the EC50 [21] was 1.95 µM (active).
